According to US9630991B2, “βsheet tapes ribbons in tissue engineering” (University of Leeds, priority 2002, dated 2017):
“Also recorded” adds a separate entry of the source. Counter-ions that a name gives are not always drawn. Where a SMILES comes first, the peptide text is derived from it. Where no end group is shown, it is not given here. [ ]: non-standard residue; d: D form. Orn = NCCC[C@H](N)C(=O)O

Key:
[1] = Fibril dimensions measured from TEM images; format: physicochemical; conditions: physiological conditions, TEM
Protocol: For, electron microscopy, samples were examined using a Phillips CM10 TEM at 80-100 kV accelerating voltage. Gels were diluted to a peptide concentration of 20 μM seconds before application to a glow-discharged, carbon-coated, copper grid followed by coating with uranyl acetate solution (4% w/v in water).
The dimensions of the fibrils formed by these peptides are given in Table 2, and TEM images from which these measurements were obtained are shown in FIGS. 6A-6D. These dimensions are—the length of a peptide fibril (contour length, L), the length of a peptide fibril before it curves (persistence length, l), the length of a full twist of a peptide fibril (twist pitch, h) the width of a fibril at its widest point (ww) and the width of the fibril at its narrowest point as it twists (wn).

L929 fibroblast cells = test: Cell density in peptide gels by ATPLite assay; format: cell-based, murine
Source text: After establishing that the peptides tested were not cytotoxic when placed in culture with L929 fibroblast cells, the next stage was assessing the suitability of the collagen peptide gels for use in supporting cell proliferation.

[2] = Net charge of peptide at pH 7.5 in physiological solution; format: physicochemical; conditions: per peptide, pH 7.5, physiological solution
[3] = Self-assembly and gel formation in physiological solution / cell media; format: physicochemical; conditions: for peptide concentration for self-supporting gel: physiological conditions
Source text: A large number (dozens) of systematically varied peptides (typically 7-30 residues long) have been studied for soluble polymer and gel formation in cell media. […] Only peptides with a approximate net +2 or −2 charge per peptide at physiological pH=7.5, were able to form soluble polymers and gel cell media (The amount of net charge necessary per peptide to keep its polymers soluble in cell media will vary depending on the overall surface properties and solubility of the peptide tapes it forms). […] These peptides retained a predominantly monomeric state and their solutions in cell media were fluids up to around 40 mg/ml peptide concentration.
The rationally designed peptide P11-8 (Tables 1A and 1C) was dissolved in 145 mM NaCl, pH˜7.5 aqueous solution (the ionic strength and pH values of the solution were similar to those present in cell culture medium) or it was added directly in cell culture medium.
The fibrils of P11-8 entwined partly with each other forming a three dimensional network and turned the peptide solution in cell media into a homogeneous self-supporting gel at peptide concentration higher than 15 mg/ml.
The gel could be temporarily broken by mechanical agitation. The time it took the gel to reform depended on the peptide concentration, ranging from seconds for a 35 mg/ml peptide gel, to hours for a 15 mg/ml peptide gel.

[4] = test system: tissue surrounding the injection site; design: species or system mice; conditions: mouse, in vivo
Source text: Injection of P11-3 and P11-8 peptide solutions in cell media in mice has shown no effect of the presence of the peptide in the tissue surrounding the injection site as judged by histology after two and eight weeks following the peptide injection.

| Molecule | L, fibril contour length [1] | h, twist pitch [1] | l, fibril persistence length [1] | wn, width of the fibril at its narrowest point [1] | ww, width of the fibril at its widest point [1] | Net charge at pH 7.5 [2] | also measured |
| --- | --- | --- | --- | --- | --- | --- | --- |
| CC(=O)N[C@@H](CO)C(=O)N[C@@H](CO)C(=O)N[C@@H](CCCNC(=N)N)C(=O)N[C@@H](Cc1ccccc1)C(=O)N[C@@H](CCC(=O)O)C(=O)N[C@@H](Cc1c[nH]c2ccccc12)C(=O)N[C@@H](CCC(=O)O)C(=O)N[C@@H](Cc1ccccc1)C(=O)N[C@@H](CCC(=O)O)C(=O)N[C@@H](CO)C(=O)N[C@@H](CO)C(N)=O [Peptide P11-9, CH3CO-S-S-R-F-E-W-E-F-E-S-S-NH2] (Ac-SSRFEWEFESS-NH2) | 1.1-5 μm | 118-236 nm | 0.4-1.3 μm | 3.5-7 nm | 7-12 nm | −2 | support of cell growth (L929 fibroblast cells; L929 cells in peptide gels): unsuccessful in supporting cell growth |
| CC(=O)N[C@@H](CO)C(=O)N[C@@H](CO)C(=O)N[C@@H](CCCNC(=N)N)C(=O)N[C@@H](Cc1ccccc1)C(=O)N[C@@H](CCCN)C(=O)N[C@@H](Cc1c[nH]c2ccccc12)C(=O)N[C@@H](CCCN)C(=O)N[C@@H](Cc1ccccc1)C(=O)N[C@@H](CCC(=O)O)C(=O)N[C@@H](CO)C(=O)N[C@@H](CO)C(N)=O [Peptide P11-12, CH3CO-S-S-R-F-O-W-O-F-E-S-S-NH2] (Ac-SSRF[Orn]W[Orn]FESS-NH2) | 1.3-5 μm | 139-220 nm | 0.4-1.2 μm | 5-7 nm | 11-16 nm | +2 | support of cell growth (L929 fibroblast cells; L929 cells in peptide gels): unsuccessful in supporting cell growth |
| CC(=O)N[C@H](C(=O)N[C@H](C(=O)N[C@@H](CCCNC(=N)N)C(=O)N[C@@H](Cc1ccccc1)C(=O)N[C@@H](CCC(=O)O)C(=O)N[C@@H](Cc1c[nH]c2ccccc12)C(=O)N[C@@H](CCC(=O)O)C(=O)N[C@@H](Cc1ccccc1)C(=O)N[C@@H](CCC(=O)O)C(=O)N[C@H](C(=O)N[C@H](C(N)=O)[C@@H](C)O)[C@@H](C)O)[C@@H](C)O)[C@@H](C)O [Peptide P11-17, CH3CO-T-T-R-F-E-W-E-F-E-T-T-NH2] (Ac-TTRFEWEFETT-NH2) | 1.3-4.5 μm | 150-236 nm | 0.3-1.7 μm | 5-10 nm | 10-16 nm | −2 | – |
| CC(=O)N[C@H](C(=O)N[C@H](C(=O)N[C@@H](CCCNC(=N)N)C(=O)N[C@@H](Cc1ccccc1)C(=O)N[C@@H](CCCN)C(=O)N[C@@H](Cc1c[nH]c2ccccc12)C(=O)N[C@@H](CCCN)C(=O)N[C@@H](Cc1ccccc1)C(=O)N[C@@H](CCC(=O)O)C(=O)N[C@H](C(=O)N[C@H](C(N)=O)[C@@H](C)O)[C@@H](C)O)[C@@H](C)O)[C@@H](C)O [Peptide P11-18, CH3CO-T-T-R-F-O-W-O-F-E-T-T-NH2] (Ac-TTRF[Orn]W[Orn]FETT-NH2) | 1.4-4.2 μm | 142-236 nm | 0.5-1.7 μm | 7-11 nm | 11-21 nm | +2 | support of cell growth (L929 fibroblast cells; L929 cells in peptide gels): unsuccessful in supporting cell growth |
| CC(=O)N[C@@H](CCC(N)=O)C(=O)N[C@@H](CCC(N)=O)C(=O)N[C@@H](CCCNC(=N)N)C(=O)N[C@@H](CCC(N)=O)C(=O)N[C@@H](CCCN)C(=O)N[C@@H](CCC(N)=O)C(=O)N[C@@H](CCCN)C(=O)N[C@@H](CCC(N)=O)C(=O)N[C@@H](CCC(=O)O)C(=O)N[C@@H](CCC(N)=O)C(=O)N[C@@H](CCC(N)=O)C(N)=O [Peptide P11-19, CH3CO-Q-Q-R-Q-O-Q-O-Q-E-Q-Q-NH2] (Ac-QQRQ[Orn]Q[Orn]QEQQ-NH2) | 1.5-3 μm | 206-356 nm | 0.5-1 μm | 7-13 nm | 15-22 nm | +2 | peptide concentration for self-supporting gel [3]: 60 mg/mL; self-assembly / gelation at 30 mg·ml^−1 ([3]; physiological solution, 30 mg·ml^−1): does not self assemble; also recorded: did not gel |
| CC(=O)N[C@@H](CCC(N)=O)C(=O)N[C@@H](CCC(N)=O)C(=O)N[C@@H](CCCNC(=N)N)C(=O)N[C@@H](CCC(N)=O)C(=O)N[C@@H](CCC(=O)O)C(=O)N[C@@H](CCC(N)=O)C(=O)N[C@@H](CCC(=O)O)C(=O)N[C@@H](CCC(N)=O)C(=O)N[C@@H](CCC(=O)O)C(=O)N[C@@H](CCC(N)=O)C(=O)N[C@@H](CCC(N)=O)C(N)=O [Peptide P11-20, CH3CO-Q-Q-R-Q-E-Q-E-Q-E-Q-Q-NH2] (Ac-QQRQEQEQEQQ-NH2) | 0.9-2.8 μm | 202-363 nm | 0.4-1.5 μm | 8-15 nm | 14-20 nm | −2 | peptide concentration for self-supporting gel [3]: > 20 mg/mL; support of cell growth (L929 fibroblast cells; L929 cells in peptide gels): supported cell growth reasonably well; macroscopic appearance of gel (L929 fibroblast cells; at end of cell culture experiment): some signs of macroscopic degradation |
| O=C(O)C(F)(F)F [TFA] | – | – | – | – | – | – | support of cell growth (L929 fibroblast cells; collagen gels supplemented with 0.9 mg·ml^−1 TFA): supported cell growth with no obvious detrimental effect on the cells; support of cell growth (L929 fibroblast cells; collagen gels supplemented with 5.1 mg·ml^−1 TFA): supported cell growth with no visible detrimental effect on cell growth |
| CH3CO-E-Q-E-F-E-W-E-F-E-Q-E-HN2 (Ac-EQEFEWEFEQE-NH2) [Peptide P11-13] | – | – | – | – | – | -6 | – |
| CH3CO-Q-Q-O-F-O-W-O-F-O-Q-Q-NH2 (Ac-QQ[Orn]F[Orn]W[Orn]F[Orn]QQ-NH2; SMILES CC(=O)N[C@@H](CCC(N)=O)C(=O)N[C@@H](CCC(N)=O)C(=O)N[C@@H](CCCN)C(=O)N[C@@H](Cc1ccccc1)C(=O)N[C@@H](CCCN)C(=O)N[C@@H](Cc1c[nH]c2ccccc12)C(=O)N[C@@H](CCCN)C(=O)N[C@@H](Cc1ccccc1)C(=O)N[C@@H](CCCN)C(=O)N[C@@H](CCC(N)=O)C(=O)N[C@@H](CCC(N)=O)C(N)=O) [Peptide P11-14] | – | – | – | – | – | +4 | – |
| CH3CO-Q-Q-R-F-E-W-E-F-E-Q-Q-NH2 (Ac-QQRFEWEFEQQ-NH2) [Peptide P11-4] | 1.2-7 μm | 132-360 nm | 0.7-1.4 μm | 5.5-8 nm | 8-14 nm | −2 | – |
| QQE^-FE^-WE^-FE^±QQ (QQEFEWEFEQQ; self assembling peptide P11-23) | – | – | – | – | – | -4 | – |
| QQO^+FO^+WO^+FQQQ (QQ[Orn]F[Orn]W[Orn]FQQQ; not fully specified (N-terminus, C-terminus); printed as QQO+FO+WO+FQQQ) [Peptide P11-5] | – | – | – | – | – | +3 | – |
| QQQFE^-WE^-FE^±QQ (QQQFEWEFEQQ; self assembling peptide P11-22) | – | – | – | – | – | -3 | – |
| QQQFQWQFE^-QQ (QQQFQWQFEQQ; self assembling peptide P11-21) | – | – | – | – | – | -1 | – |
| QQR^+FQWQFQQQ (QQRFQWQFQQQ; self assembling peptide P11-3) | – | – | – | – | – | – | fibrils and gels after sterilisation using an autoclave ([3]; cell media): reform after sterilisation using an autoclave; effect on tissue surrounding the injection site by histology [4]: no effect |
